Consider 6 compounds from article PMC12655371.

This series is described as follows: derived from PAMPA membrane permeability. The conditions noted are these: n-hexadecane (PAMPA-derived); buffer (PAMPA). In general terms: PAMPA measures passive passage across an artificial lipid membrane.
Consider `c1ccc2c(c1)Sc1ccccc1N2CC1CN2CCC1CC2` (stereo not drawn), for which the “hexadecane/water partition coefficient derived from PAMPA flux (Khex/w)” value is 2951 K (ratio).

As to `Cc1c(O)cccc1C(=O)N[C@@H](CSc1ccccc1)[C@H](O)CN1C[C@H]2CCCC[C@H]2C[C@H]1C(=O)NC(C)(C)C`, the “hexadecane/water partition coefficient derived from PAMPA flux (Khex/w)” value is 0.398 K (ratio).

In the case of `CC(C)(C)c1ccc(C(O)CCCN2CCC(C(O)(c3ccccc3)c3ccccc3)CC2)cc1` (stereo not drawn), the “hexadecane/water partition coefficient derived from PAMPA flux (Khex/w)” value is listed as 34105.6131886465 K (ratio).

`CN1CCC[C@@H]1Cc1c[nH]c2ccc(CCS(=O)(=O)c3ccccc3)cc12`: the “hexadecane/water partition coefficient derived from PAMPA flux (Khex/w)” value is 1.2 K (ratio).

Take `CC(C)CN(C[C@@H](O)[C@H](Cc1ccccc1)NC(=O)O[C@H]1CCOC1)S(=O)(=O)c1ccc(N)cc1`: the “hexadecane/water partition coefficient derived from PAMPA flux (Khex/w)” value is reported as 0.01885 K (ratio).

For the compound `Clc1ccc2c(c1)CCc1cccnc1C2=C1CCNCC1`, the “hexadecane/water partition coefficient derived from PAMPA flux (Khex/w)” value is recorded as 99.11 K (ratio).
